From ChEMBL document CHEMBL1138676, “Liver-selective glucocorticoid antagonists: a novel treatment for type 2 diabetes” (J Med Chem, 2004)
pKi: −log10 of the molar value.

Assays:
Glucocorticoid receptor [1] = biological target: T1, Glucocorticoid receptor (Homo sapiens, UniProt P04150); experiment: Inhibition of glucocorticoid receptor dependent alkaline phosphatase activity; type: functional
T1 sequence (P04150 whole entry): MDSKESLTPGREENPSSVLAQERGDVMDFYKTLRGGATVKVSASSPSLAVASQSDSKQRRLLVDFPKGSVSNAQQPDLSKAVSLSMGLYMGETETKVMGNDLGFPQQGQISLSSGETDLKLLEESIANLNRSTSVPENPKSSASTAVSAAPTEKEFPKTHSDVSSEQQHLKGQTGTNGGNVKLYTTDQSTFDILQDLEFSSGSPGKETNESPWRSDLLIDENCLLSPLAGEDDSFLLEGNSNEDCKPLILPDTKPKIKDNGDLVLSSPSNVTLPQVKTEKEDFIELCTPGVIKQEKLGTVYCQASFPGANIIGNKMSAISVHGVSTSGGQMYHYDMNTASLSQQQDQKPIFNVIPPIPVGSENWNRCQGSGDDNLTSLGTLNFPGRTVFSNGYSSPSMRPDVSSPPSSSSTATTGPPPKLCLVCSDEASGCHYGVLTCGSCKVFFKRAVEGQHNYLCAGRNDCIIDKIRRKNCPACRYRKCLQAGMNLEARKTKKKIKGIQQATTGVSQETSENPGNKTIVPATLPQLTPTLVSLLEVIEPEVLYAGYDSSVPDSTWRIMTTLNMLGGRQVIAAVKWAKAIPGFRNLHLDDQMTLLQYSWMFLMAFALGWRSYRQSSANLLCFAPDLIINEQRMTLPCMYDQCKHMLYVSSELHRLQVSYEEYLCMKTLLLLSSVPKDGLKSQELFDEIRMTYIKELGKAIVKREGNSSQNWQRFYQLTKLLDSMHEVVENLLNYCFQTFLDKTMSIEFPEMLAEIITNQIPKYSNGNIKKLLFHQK

[2] = biological target: T2, Thyroid hormone receptor alpha (Homo sapiens, UniProt P10827); experiment: Inhibition of human Thyroid hormone receptor alpha
T2 sequence (P10827 whole entry): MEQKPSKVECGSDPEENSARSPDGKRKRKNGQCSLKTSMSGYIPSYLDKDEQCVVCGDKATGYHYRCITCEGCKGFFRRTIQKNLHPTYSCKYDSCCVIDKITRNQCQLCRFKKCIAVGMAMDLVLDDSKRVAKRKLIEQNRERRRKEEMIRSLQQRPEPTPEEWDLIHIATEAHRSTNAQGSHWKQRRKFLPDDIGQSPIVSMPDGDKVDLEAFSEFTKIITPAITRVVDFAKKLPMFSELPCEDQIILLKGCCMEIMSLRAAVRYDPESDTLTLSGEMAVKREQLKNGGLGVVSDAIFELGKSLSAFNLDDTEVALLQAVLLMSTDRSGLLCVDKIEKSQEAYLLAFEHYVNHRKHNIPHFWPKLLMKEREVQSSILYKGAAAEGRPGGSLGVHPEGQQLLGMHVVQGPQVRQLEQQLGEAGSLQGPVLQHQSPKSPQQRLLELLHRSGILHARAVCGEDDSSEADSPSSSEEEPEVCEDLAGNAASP

Androgen receptor = biological target: T3, Androgen receptor (Homo sapiens, UniProt P10275)
T3 sequence (P10275 whole entry): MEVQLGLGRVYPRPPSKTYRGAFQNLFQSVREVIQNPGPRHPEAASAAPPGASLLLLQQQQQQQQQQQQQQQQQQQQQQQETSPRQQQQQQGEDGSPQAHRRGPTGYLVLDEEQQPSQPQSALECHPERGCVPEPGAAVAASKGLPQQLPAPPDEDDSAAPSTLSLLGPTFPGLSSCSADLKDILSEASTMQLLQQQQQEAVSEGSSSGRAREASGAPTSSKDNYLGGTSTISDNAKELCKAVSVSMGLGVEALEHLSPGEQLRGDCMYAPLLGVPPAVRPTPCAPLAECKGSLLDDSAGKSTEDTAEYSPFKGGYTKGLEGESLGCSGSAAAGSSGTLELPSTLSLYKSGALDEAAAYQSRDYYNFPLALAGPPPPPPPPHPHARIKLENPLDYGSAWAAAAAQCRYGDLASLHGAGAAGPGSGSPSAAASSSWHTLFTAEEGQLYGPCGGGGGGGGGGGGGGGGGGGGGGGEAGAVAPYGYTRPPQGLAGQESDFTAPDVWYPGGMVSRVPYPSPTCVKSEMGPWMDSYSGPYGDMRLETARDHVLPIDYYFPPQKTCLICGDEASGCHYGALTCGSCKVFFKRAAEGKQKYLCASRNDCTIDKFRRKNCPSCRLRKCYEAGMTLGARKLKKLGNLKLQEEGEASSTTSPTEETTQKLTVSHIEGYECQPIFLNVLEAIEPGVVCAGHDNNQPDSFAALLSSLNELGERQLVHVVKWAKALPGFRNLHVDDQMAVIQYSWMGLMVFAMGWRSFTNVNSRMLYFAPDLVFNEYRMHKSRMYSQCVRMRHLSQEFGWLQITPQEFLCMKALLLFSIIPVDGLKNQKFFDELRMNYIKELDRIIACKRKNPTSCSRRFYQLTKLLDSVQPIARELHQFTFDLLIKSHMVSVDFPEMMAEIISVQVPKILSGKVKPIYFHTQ
Description: Inhibition of human androgen receptor

Estrogen receptor = biological target: T4, Estrogen receptor (Homo sapiens, UniProt P03372); experiment: Inhibition of human Estrogen receptor alpha
T4 sequence (P03372 whole entry): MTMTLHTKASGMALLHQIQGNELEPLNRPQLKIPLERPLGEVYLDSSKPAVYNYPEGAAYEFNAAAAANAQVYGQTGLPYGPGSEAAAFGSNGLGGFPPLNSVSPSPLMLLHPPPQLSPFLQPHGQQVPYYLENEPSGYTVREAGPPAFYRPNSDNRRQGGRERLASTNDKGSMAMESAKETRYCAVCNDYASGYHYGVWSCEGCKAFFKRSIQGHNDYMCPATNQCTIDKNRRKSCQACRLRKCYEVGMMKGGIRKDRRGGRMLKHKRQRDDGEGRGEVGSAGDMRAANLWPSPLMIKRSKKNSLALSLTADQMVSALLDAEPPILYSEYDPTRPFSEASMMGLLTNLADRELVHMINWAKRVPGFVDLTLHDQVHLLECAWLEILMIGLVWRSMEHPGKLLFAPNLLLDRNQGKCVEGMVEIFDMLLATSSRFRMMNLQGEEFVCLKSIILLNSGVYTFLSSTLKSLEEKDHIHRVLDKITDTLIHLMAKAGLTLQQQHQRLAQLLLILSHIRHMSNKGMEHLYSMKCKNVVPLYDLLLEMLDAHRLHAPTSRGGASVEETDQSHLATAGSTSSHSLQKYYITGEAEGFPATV

Glucocorticoid receptor [3] = biological target: T1, Glucocorticoid receptor; experiment: Inhibition of human glucocorticoid receptor
[4] = biological target: Glucocorticoid receptor (Rattus norvegicus) (UniProt P06536); experiment: Inhibition of glucocorticoid receptor mediated tyrosine amino transferase activity
Sequence of Glucocorticoid receptor (Rattus norvegicus) (P06536 whole entry, looked up): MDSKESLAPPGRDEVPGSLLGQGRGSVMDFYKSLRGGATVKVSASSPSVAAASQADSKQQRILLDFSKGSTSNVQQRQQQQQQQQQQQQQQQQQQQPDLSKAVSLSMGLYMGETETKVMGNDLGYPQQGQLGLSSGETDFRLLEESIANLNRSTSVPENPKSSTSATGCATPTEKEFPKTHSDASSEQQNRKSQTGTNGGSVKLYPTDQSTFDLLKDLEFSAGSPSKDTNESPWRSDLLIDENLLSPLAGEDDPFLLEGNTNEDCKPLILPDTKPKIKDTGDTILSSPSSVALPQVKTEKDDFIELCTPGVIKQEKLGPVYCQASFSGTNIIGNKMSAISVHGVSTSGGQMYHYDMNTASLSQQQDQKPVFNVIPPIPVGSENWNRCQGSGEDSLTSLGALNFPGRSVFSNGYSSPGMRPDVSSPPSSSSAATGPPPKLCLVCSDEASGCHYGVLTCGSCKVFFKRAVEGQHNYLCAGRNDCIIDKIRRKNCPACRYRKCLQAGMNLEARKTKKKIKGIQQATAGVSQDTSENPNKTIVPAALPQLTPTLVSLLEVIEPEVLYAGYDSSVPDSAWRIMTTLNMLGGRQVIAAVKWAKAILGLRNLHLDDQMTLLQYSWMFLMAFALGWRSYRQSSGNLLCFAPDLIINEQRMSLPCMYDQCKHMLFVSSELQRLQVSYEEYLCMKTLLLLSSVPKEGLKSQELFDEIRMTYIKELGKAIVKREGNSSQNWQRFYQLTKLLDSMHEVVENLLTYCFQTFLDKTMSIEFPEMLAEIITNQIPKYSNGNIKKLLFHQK

pKi (Glucocorticoid receptor [1]) | pKi [2] | pKi (Androgen receptor) | pKi (Estrogen receptor) | pKi (Glucocorticoid receptor [3]) | pKi [4] | SMILES
8.92 | < 5.90 | 8.13 | 8.21 | 9.57 | 7.22 | C#C[C@]1(O)CC[C@H]2[C@@H]3CCC4=CC(=O)CCC4=C3[C@@H](c3ccc(N(C)CCCC(=O)N(C)C4CC[C@@]5(C)[C@@H](C4)C[C@@H](O)[C@@H]4[C@@H]5C[C@H](O)[C@]5(C)[C@@H]([C@H](C)CCC(=O)O)CC[C@@H]45)cc3)C[C@@]21C (some centres not stated)
6.60 | 5.92 | 7.47 | 7.14 | 8.52 | 6.46 | C#C[C@]1(O)CC[C@H]2[C@@H]3CCC4=CC(=O)CCC4=C3[C@@H](c3ccc(N(C)C(=O)CC[C@H](NC(=O)CC[C@@H](C)[C@H]4CC[C@H]5[C@@H]6[C@H](O)C[C@@H]7C[C@H](O)CC[C@]7(C)[C@H]6C[C@H](O)[C@]45C)C(=O)O)cc3)C[C@@]21C
